Assay results reported in US20120196899A1, “METHODS AND PRODUCTS FOR TREATING INFLAMMATION” (Rock Creek Pharmaceuticals, Inc., priority 2010, published 2012).

What was measured:
nAChR α7 [1] = molecular target: T1, nAChR α7 (Homo sapiens, UniProt P36544); test: nAChR α7 positive allosteric modulator assay (FLIPR); assay type: cell-based; conditions: with 30 μM Ach (= 0%), 30 μM Ach + 10 μM PNU-120596 = 100%
T1 construct: host or cells: CHO cells
Procedure: The following three (3) channels were evaluated: • 1. nAChR α3/β4 (encoded by the human CHRNA3 and CHRNB4 gene and stably expressed in CHO cells); • 2. nAChR α4/β2 (CHRNA4 and CHRNB2 gene and transiently expressed in HEK293 cells); and • 3. nAChR α7 (encoded by the human nicotinic α7 gene coexpressed in CHO cells with the chaperone RIC-3 encoded by the human RIC3 gene).
The ability of each test article to act as an agonist, a positive allosteric modulator or antagonist of three nAChR receptor channels was evaluated in the presence of 0.1 atropine. Both test articles were evaluated for responses on each nAChR channel at eight (8) concentrations: 0.3, 1, 3, 10, 30, 100, 300, and 1000 μM (n=4 for each concentration).
HEK293 or CHO cells were transiently or stably transfected with the appropriate human ion channel cDNAs. Stable transfectants were selected by coexpression with the antibiotic-resistance gene(s) incorporated into the expression plasmid(s). Selection pressure was maintained by including selection antibiotics in the culture medium. HEK293 cells were cultured in Dulbecco's Modified Eagle Medium/Nutrient Mixture F-12 (D-MEM/F-12) supplemented with 10% fetal bovine serum, 100 U/mL penicillin G sodium, 100 g/mL streptomycin sulfate and appropriate selection antibiotics. CHO cells were cultured in Ham's F-12 supplemented with 10% fetal bovine serum, 100 U/mL penicillin G sodium, 100 g/mL streptomycin sulfate and appropriate selection antibiotics.
For FLIPR TETRA™ assay, cells were plated in 384-well black wall, flat clear bottom microtiter plates (Type: BD Biocoat Poly-D-Lysine Multiwell Cell Culture Plate) at 20,000 to 30,000 cells per well (384-well plate). Cells were incubated at 37° C. overnight or until the cells reached a sufficient density in the wells (near confluent monolayer) to use in fluorescence assays. For α4β2 assay, cells were incubated at 27° C. for at least 7 hours before use.
Experiments were performed with either the FLIPR calcium sensitive dye kit (Fluo-8, ABDbioquest, for nAChR α3/β4 and nAChR α7) or FLIPR membrane potential kit (Molecular Devices, for nAChR α4/β2) according to the manufacturer's instructions. Briefly, cells were incubated with 201 dye for 30 min at 37° C. After dye loading period, for the agonist assay, 5 μl of the test, vehicle, or control articles at concentration of 5 times of final concentration were applied to the cells without stimulation. For the positive allosteric modulation (PAM) and antagonist assay, after test article application, the cells were stimulated with either low dose (for PAM) or high dose (for antagonist) of Ach.
The ability of each test article to act as a positive allosteric modulator of nicotinic α7 was carried out in the presence of the positive control agonist (30 μM Ach) alone. The signal elicited in the presence of the positive control agonist and allosteric modulator PNU-120596 (30 μM Ach+10 μM PNU-120596) was set to 100% and the signal from the agonist control (30 μM Ach) was set to 0%. Values were considered significant and in bold font if the test article mean was three or more standard deviations above the agonist control mean.

nAChR α7 [2] = molecular target: T1, nAChR α7; test: cell-based; conditions: with 300 μM Ach + 10 μM PNU-120596, 10 μM MLA = full inhibition, read-out: Normalized % Inhibition

T1 sequence (P36544 23-502): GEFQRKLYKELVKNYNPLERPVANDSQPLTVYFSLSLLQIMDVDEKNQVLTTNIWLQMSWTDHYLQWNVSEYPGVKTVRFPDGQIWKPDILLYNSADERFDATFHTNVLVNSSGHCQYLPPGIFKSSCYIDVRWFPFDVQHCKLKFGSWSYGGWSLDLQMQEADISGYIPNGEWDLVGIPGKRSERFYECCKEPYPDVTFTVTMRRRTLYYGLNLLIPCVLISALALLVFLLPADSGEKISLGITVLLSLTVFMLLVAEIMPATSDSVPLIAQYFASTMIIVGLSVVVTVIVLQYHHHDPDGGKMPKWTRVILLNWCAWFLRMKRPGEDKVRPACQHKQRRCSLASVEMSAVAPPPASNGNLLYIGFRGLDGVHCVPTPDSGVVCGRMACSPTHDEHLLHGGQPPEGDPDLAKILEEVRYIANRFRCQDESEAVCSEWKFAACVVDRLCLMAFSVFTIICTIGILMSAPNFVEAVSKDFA

For `C1=CCC(c2cccnc2)NC1` (racemic) [Anatabine (racemate)], which “Normalized % Potentiation” value (nAChR α7 [1]; test conc 0.3 μM) is on record?
The value was −0.94%.

And the “Normalized % Potentiation” value (nAChR α7 [1]; test conc 1 μM)?
The value was −1.05%.

What about the “Normalized % Potentiation” value (nAChR α7 [1]; test conc 3 μM) of the same compound?
Its value is −0.82%.

And the “Normalized % Potentiation” value (nAChR α7 [1]; test conc 10 μM)?
Its value is −0.51%.

And the “Normalized % Potentiation” value (nAChR α7 [1]; test conc 30 μM)?
Its value is −0.57%.

What about the “Normalized % Potentiation” value (nAChR α7 [1]; test conc 100 μM) of the same compound?
The value was −0.64%.

What about the “Normalized % Potentiation” value (nAChR α7 [1]; test conc 300 μM) of the same compound?
The value was −0.74%.

And the “Normalized % Potentiation” value (nAChR α7 [1]; test conc 1000 μM)?
The value was −1.05%.

What about the inhibition at 0.3 µM (nAChR α7 [2]; test conc 0.3 μM) of the same compound?
The inhibition at 0.3 µM was 22.4%.

What about the inhibition at 1 µM (nAChR α7 [2]; test conc 1 μM) of the same compound?
Its inhibition at 1 µM is 22.2%.

And the inhibition at 3 µM (nAChR α7 [2]; test conc 3 μM)?
The inhibition at 3 µM was 45.2%.

What about the inhibition at 10 µM (nAChR α7 [2]; test conc 10 μM) of the same compound?
Its inhibition at 10 µM is 33.4%.

And the inhibition at 30 µM (nAChR α7 [2]; test conc 30 μM)?
The inhibition at 30 µM was 22.9%.

What about the inhibition at 100 µM (nAChR α7 [2]; test conc 100 μM) of the same compound?
Its inhibition at 100 µM is 22%.

And the inhibition at 300 µM (nAChR α7 [2]; test conc 300 μM)?
Its inhibition at 300 µM is 7.51%.

And the inhibition at 1000 µM (nAChR α7 [2]; test conc 1000 μM)?
The inhibition at 1000 µM was 10.8%.
